In patent US20170313669A1, “LACTONE COMPOUNDS AND METHODS OF MAKING AND USING SAME” (THE SCRIPPS RESEARCH INSTITUTE, priority 2015, published 2017):

What was measured:
Type in all cases: biochemical
[1] = Lipid substrate hydrolysis assay, mock-transfected HEK293T membrane proteome; conditions: substrate 100 μM
Method: (§1) All the lipid species used in the lipid substrate hydrolysis assays were purchased from Avanti Polar Lipids Inc unless mentioned otherwise. In general, 20 μg of proteome was incubated with 100 μM lipid in a reaction volume of 100 μL in PBS at 30° C. with constant shaking. After 30 minutes the reaction was quenched with 350 μL of 2:1 (vol/vol) CHCl3: MeOH, doped with 0.5 nmol internal standard (17:1 FFA). The mixture was vortexed, and the centrifuged at 2800×g for 5 minutes to separate the aqueous (top) and organic (bottom) phase. The organic phase was collected. 5 μL of formic acid was added to the aqueous phase, and extracted again using 350 μL of 2:1 (vol/vol) CHCl3: MeOH using above mentioned protocol. The organic phase was collected, and pooled with the organic phase from the first extraction. […] All the data was collected and analyzed using the Agilent MassHunter Workstation software version B.04 using the Data Acquisition and Quantitative Analysis programs respectively. Measuring the area under the peak, and normalizing it to the internal standard quantified the product release for the lipid substrate hydrolysis assays. […] Some products from the substrate hydrolysis assays were detected in positive ion mode for qualitative identification. […]

ABHD16A (mouse) = target: T1, ABHD16A (mouse) (Mus musculus, UniProt Q9Z1Q2); assay: Lipid substrate hydrolysis assay, murine ABHD16A-transfected HEK293T membrane proteome; conditions: substrate 100 μM
T1 construct: full-length cDNA of human ABHD16A (Open Biosystems Catalog # MHS6278-202758315) or murine ABHD16A (Open Biosystems Catalog # MMM1013-202760516) in pCMV-SPORT6 vector; host or cells: HEK293T
T1 sequence (Q9Z1Q2 whole entry): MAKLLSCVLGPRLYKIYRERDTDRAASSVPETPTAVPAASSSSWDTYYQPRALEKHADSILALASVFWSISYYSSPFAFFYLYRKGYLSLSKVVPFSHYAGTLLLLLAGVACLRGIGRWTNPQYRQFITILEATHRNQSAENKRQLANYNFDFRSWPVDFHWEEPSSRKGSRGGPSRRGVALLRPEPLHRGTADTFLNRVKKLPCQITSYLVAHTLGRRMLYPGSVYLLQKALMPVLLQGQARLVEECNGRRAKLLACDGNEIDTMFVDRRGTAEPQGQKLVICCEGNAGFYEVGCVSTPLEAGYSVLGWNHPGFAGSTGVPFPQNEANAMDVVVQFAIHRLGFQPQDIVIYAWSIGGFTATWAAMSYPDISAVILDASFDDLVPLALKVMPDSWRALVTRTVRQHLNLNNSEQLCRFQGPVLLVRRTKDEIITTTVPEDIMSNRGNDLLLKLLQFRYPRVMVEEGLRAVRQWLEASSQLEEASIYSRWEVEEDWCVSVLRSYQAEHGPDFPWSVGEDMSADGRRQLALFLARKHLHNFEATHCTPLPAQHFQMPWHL
Method: as §1

[2] = target: T2, ABHD16A (WT and S355A mutant) (Homo sapiens, UniProt O95870); assay: Activity-dependent labeling of ABHD16A by WHP01 in transfected HEK293T lysates; conditions: transfected HEK293T cell lysates
T2 construct: All full-length cDNA constructs coding for serine hydrolases ABHD16A, and ABHD12 were purchased from Open Biosystems; FLAG; expressed in transfected cells; host or cells: HEK293T
T2 sequence (O95870 whole entry S355A): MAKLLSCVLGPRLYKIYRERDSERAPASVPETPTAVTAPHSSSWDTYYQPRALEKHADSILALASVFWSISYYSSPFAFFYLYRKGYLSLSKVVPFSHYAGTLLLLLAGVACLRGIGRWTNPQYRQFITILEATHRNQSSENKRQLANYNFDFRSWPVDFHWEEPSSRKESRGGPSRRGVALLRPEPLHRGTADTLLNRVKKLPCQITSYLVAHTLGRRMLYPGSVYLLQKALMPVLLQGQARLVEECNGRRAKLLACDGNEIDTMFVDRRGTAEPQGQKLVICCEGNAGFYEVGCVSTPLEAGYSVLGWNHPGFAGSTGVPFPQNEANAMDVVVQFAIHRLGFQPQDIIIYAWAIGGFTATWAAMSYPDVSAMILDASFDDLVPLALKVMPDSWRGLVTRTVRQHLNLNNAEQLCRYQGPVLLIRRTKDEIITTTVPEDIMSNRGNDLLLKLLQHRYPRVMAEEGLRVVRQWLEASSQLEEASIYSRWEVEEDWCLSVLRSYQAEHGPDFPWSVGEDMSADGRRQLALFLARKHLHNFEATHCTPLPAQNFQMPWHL

| Compound | Lipase activity, Mock, Mean [1] [nmol/mg/min] | Lipase activity, ABHD16A, Mean (ABHD16A (mouse)) [nmol/mg/min] | labeling of ABHD16A [2] |
| --- | --- | --- | --- |
| PG 16:0/18:1 | 3.8 | 12.5 | – |
| CCCCCCCCCCCCCC1OC(=O)/C1=C\CCCC(=O)NCCCCCNC(=O)c1ccc(-c2c3ccc(=[N+](C)C)cc-3oc3cc(N(C)C)ccc23)c(C(=O)[O-])c1 (stereo not drawn) [WHP01, (Z)-2-(6-(dimethylamino)-3-(dimethyliminio)-3H-xanthen-9-yl)-5-((5-(5-(2-oxo-4-tridecyloxetan-3-ylidene)pentanamido)pentyl)carbamoyl)benzoate] | – | – | labeled WT-ABHD16A but not the catalytic serine S355A mutant |
